The target in series [1] is EthA (Rv3854c) (Mycobacterium tuberculosis, UniProt P9WNF9). Type of series: biochemical.
The target of series [2] is Rv0892 (Mycobacterium tuberculosis, UniProt P9WNG1).
Series [3] concerns the target Rv0565c (Mycobacterium tuberculosis, UniProt O53762).
The subject of series [4] is CCCC(=O)CC(=O)OCC. Nature of the series: purified protein. The following applies: pH 7.5; 25.0 °C.
Series [5] concerns CCCCCCC(C)=O. Nature of the series: purified protein. The following applies: pH 7.5; 25.0 °C.

Chain of Rv0892 (P9WNG1 whole entry, looked up): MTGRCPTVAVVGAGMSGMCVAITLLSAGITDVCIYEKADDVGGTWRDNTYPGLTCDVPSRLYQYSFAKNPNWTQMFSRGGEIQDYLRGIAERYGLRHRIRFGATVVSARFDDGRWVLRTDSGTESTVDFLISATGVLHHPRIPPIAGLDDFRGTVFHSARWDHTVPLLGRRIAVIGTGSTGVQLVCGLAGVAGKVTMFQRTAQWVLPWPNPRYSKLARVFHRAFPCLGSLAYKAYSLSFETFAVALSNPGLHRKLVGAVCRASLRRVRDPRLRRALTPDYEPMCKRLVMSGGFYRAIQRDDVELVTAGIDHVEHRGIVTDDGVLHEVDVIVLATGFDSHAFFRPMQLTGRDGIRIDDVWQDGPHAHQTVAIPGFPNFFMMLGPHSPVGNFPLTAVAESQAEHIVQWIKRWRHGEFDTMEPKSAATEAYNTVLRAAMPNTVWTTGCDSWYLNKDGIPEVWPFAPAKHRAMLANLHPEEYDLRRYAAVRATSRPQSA
Chain of EthA (Rv3854c) (P9WNF9 whole entry, looked up): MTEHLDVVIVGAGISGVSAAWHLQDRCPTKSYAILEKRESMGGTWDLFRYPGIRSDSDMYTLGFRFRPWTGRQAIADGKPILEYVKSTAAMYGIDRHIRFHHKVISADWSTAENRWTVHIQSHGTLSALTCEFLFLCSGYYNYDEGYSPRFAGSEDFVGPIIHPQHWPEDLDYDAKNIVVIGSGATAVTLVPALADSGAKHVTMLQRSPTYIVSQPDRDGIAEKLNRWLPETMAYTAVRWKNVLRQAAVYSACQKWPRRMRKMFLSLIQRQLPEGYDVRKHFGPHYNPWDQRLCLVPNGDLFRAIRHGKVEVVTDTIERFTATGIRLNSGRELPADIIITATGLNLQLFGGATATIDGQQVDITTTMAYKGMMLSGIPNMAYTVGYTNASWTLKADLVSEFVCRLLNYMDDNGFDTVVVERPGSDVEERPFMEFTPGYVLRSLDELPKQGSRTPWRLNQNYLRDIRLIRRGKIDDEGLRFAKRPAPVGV
Chain of Rv0565c (O53762 entry or part of it): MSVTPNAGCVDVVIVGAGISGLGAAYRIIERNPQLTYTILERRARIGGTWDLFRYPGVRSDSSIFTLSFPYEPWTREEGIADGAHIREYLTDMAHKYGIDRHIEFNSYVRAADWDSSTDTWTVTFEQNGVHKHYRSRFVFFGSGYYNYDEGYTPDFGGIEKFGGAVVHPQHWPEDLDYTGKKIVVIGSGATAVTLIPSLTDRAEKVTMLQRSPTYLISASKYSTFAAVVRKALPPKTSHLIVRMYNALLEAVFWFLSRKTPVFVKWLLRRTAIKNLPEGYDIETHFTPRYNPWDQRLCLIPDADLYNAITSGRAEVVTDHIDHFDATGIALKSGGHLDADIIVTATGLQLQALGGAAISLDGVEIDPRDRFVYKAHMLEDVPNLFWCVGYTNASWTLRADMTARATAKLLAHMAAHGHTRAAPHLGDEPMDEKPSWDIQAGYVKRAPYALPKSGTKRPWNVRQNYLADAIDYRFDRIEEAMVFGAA

In the case of `CCCCCCC(C)=O` [2-octanone], the activity result in series [1] is “Rv0565c and EthA are efficient in oxidizing 2-octanone”; in series [3] it was “Rv0565c and EthA are efficient in oxidizing 2-octanone”. The specific activity result in series [2] is listed as “Rv0892 exhibits markedly low catalytic rates on the tested substrates”.
Broadly, the Km is the concentration of substrate that gives half-maximal velocity. Regarding “MymA (Rv3083), MymAcoli (Mycobacterium tuberculosis H37Rv)”, the Km in series [4] was found to be 240 ± 40 µM; in series [5] it was 400 ± 100 µM.
Regarding `CCCC(=O)CC(=O)OCC` [ethyl 3-oxohexanoate], the activity result in series [1] was “with 2-oct and Et3-ox being the most effective substrates”; in series [3], “with 2-oct and Et3-ox being the most effective substrates”. Besides, the specific activity result in series [2] is “Rv0892 exhibits markedly low catalytic rates on the tested substrates”.

For the origin of these results see PMC9044951, “Bioinformatic Mining and Structure-Activity Profiling of Baeyer-Villiger Monooxygenases from Mycobacterium tuberculosis” (mSphere, 2022).
